Values belong to the compound of their own block, whether it stands above or below them.
What was measured:
[1] = Drug concentration in Sprague-Dawley rat plasma at 3 mg/kg, po after 1 hr; assay type: ADME, organism-based
[2] = Drug concentration in Sprague-Dawley rat brain at 3 mg/kg, po after 1 hr; assay type: ADME, organism-based; settings: read-out: Drug uptake
[3] = Ratio of drug level in Sprague-Dawley rat brain to plasma at 3 mg/kg, po after 1 hr; assay type: ADME, organism-based; settings: brain and plasma, read-out: BPR
[4] = Drug level in Sprague-Dawley rat cerebrospinal fluid at 3 mg/kg, po; assay type: ADME, organism-based; settings: in vivo
[5] = Drug level in rat plasma at 10 mg/kg, ip after 120 mins by HPLC-LC/MS analysis; assay type: ADME, organism-based
[6] = Ratio of drug level in rat brain to plasma at 10 mg/kg, ip by HPLC-LC/MS analysis; assay type: ADME, organism-based; settings: brain and plasma, read-out: BPR
[7] = Drug level in NSA mouse brain at 0.3 mg/kg, po after 120 to 150 mins; assay type: ADME, organism-based; settings: in vivo, read-out: Drug uptake
[8] = Drug level in DBA/2 mouse brain at 0.3 mg/kg, iv after 90 mins; assay type: ADME, organism-based; settings: read-out: Drug uptake
[9] = Drug level in DBA/2 mouse brain at 0.3 mg/kg, iv after 10 mins; assay type: ADME, organism-based; settings: read-out: Drug uptake
Rattus norvegicus [10] = assay: Memory enhancement effect in scopolamine-induced Wistar rat model of amnesia assessed as increase in exploration time for novel object in retention trial at 0.15 mg/kg, po administered as single dose and measured on day 9 by novel object recognition test (reference value: 12.09 sec); assay type: functional
Rattus norvegicus [11] = assay: Memory enhancement effect in scopolamine-induced Wistar rat model of amnesia assessed as exploration time for novel object in retention trial at 0.05 mg/kg, po for 7 days and measured on day 8 by novel object recognition test (reference value: 12.09 sec); assay type: functional
Rattus norvegicus [12] = assay: Memory enhancement effect in time-delay induced Wistar rat model of amnesia assessed as exploration time for object1 at 3 mg/kg, po administered as single dose after acquisition trial by novel object recognition test (reference value: 19.09 sec); assay type: functional
Rattus norvegicus [13] = assay: Memory enhancement effect in time-delay induced Wistar rat model of amnesia assessed as exploration time for object1 in acquisition trial at 3 mg/kg, po administered as single dose and measured on day 8 by novel object recognition test (reference value: 13.95 sec); assay type: functional
Rattus norvegicus [14] = assay: Memory enhancement effect in scopolamine-induced Wistar rat model of amnesia assessed as exploration time for object1 in acquisition trial at 0.15 mg/kg, po administered as single dose and measured on day 8 by novel object recognition test (reference value: 16.11 sec); assay type: functional
Rattus norvegicus [15] = assay: Memory enhancement effect in time-delay induced Wistar rat model of amnesia assessed as exploration time for familiar object in retention trial at 3 mg/kg, po administered as single dose and measured on day 9 by novel object recognition test (reference value: 13.05 sec); assay type: functional
Rattus norvegicus [16] = assay: Improvement in social recognition time delay-induced Sprague-Dawley rat model of amnesia assessed as increase in reduction in social investigation time at 0.15 mg/kg, po for 7 days and measured on day 9 (reference value: -0.5%); assay type: functional; parameters: scale not given: the % may be the effect or the level left
Rattus norvegicus [17] = assay: Memory enhancement effect in scopolamine-induced Wistar rat model of amnesia assessed as exploration time for object1 in acquisition trial at 0.05 mg/kg, po for 7 days and measured on day 8 by novel object recognition test (reference value: 16.11 sec); assay type: functional
Rattus norvegicus [18] = assay: Memory enhancement effect in time-delay induced Wistar rat model of amnesia assessed as increase in exploration time for novel object in retention trial at 3 mg/kg, po administered as single dose and measured on day 9 by novel object recognition test (reference value: 12.06 sec); assay type: functional
Rattus norvegicus [19] = assay: Memory enhancement effect in time-delay induced Wistar rat model of amnesia assessed as exploration time for familiar object in retention trial at 0.05 mg/kg, po for 7 days and measured on day 8 by novel object recognition test (reference value: 10.20 sec); assay type: functional
[20] = Drug level in Wistar rat brain at 3 mg/kg, po after 2 hrs by LC-MS/MS analysis; assay type: ADME, organism-based; settings: read-out: Drug uptake
[21] = Ratio of drug level in brain to plasma in Wistar rat at 3 mg/kg, po after 2 hrs by LC-MS/MS analysis; assay type: ADME, organism-based; settings: brain and plasma, read-out: BPR
Rattus norvegicus [22] = assay: Improvement in social recognition time delay-induced Sprague-Dawley rat model of amnesia assessed as increase in reduction in social investigation time at 3 mg/kg, po administered as single dose prior to 1 hr training and measured after 30 mins (reference value: 0.39%); assay type: functional; parameters: scale not given: the % may be the effect or the level left
Rattus norvegicus [23] = assay: Memory enhancement effect in scopolamine-induced Wistar rat model of amnesia assessed as exploration time for object2 in acquisition trial at 0.15 mg/kg, po administered as single dose and measured on day 8 by novel object recognition test (reference value: 15.63 sec); assay type: functional
Rattus norvegicus [24] = assay: Memory enhancement effect in time-delay induced Wistar rat model of amnesia assessed as exploration time for object2 at 3 mg/kg, po administered as single dose after acquisition trial by novel object recognition test (reference value: 21.07 sec); assay type: functional
Rattus norvegicus [25] = assay: Memory enhancement effect in scopolamine-induced Wistar rat model of amnesia assessed as exploration time for familiar object in retention trial at 0.05 mg/kg, po for 7 days and measured on day 8 by novel object recognition test (reference value: 8.59 sec); assay type: functional
Rattus norvegicus [26] = assay: Memory enhancement effect in time-delay induced Wistar rat model of amnesia assessed as exploration time for object1 in acquisition trial at 0.05 mg/kg, po for 7 days and measured on day 8 by novel object recognition test (reference value: 13.73 sec); assay type: functional
Rattus norvegicus [27] = assay: Improvement in social recognition scopolamine-induced Sprague-Dawley rat model of amnesia assessed as increase in reduction in social investigation time at 0.15 mg/kg, po for 7 days measured after 24 hrs (Rvb =6.59%); assay type: functional; parameters: scale not given: the % may be the effect or the level left
Rattus norvegicus [28] = assay: Memory enhancement effect in time-delay induced Wistar rat model of amnesia assessed as exploration time for object2 in acquisition trial at 0.05 mg/kg, po for 7 days and measured on day 8 by novel object recognition test (reference value: 11.76 sec); assay type: functional
Rattus norvegicus [29] = assay: Memory enhancement effect in time-delay induced Wistar rat model of amnesia assessed as exploration time for novel object at 3 mg/kg, po administered as single dose after acquisition trial by novel object recognition test (reference value: 12.81 sec); assay type: functional
Rattus norvegicus [30] = assay: Memory enhancement effect in time-delay induced Wistar rat model of amnesia assessed as exploration time for novel object in retention trial at 0.05 mg/kg, po for 7 days and measured on day 8 by novel object recognition test (reference value: 15.37 sec); assay type: functional
Rattus norvegicus [31] = assay: Improvement in social recognition scopolamine-induced Sprague-Dawley rat model of amnesia assessed as increase in reduction in social investigation time at 3 mg/kg, po administered as single dose prior to 1 hr training and measured after 30 mins (reference value: 9.81%); assay type: functional; parameters: scale not given: the % may be the effect or the level left
[32] = Drug concentration in Wistar rat plasma at 3 mg/kg, po after 2 hrs by LC-MS/MS analysis; assay type: ADME, organism-based
Rattus norvegicus [33] = assay: Memory enhancement effect in scopolamine-induced Wistar rat model of amnesia assessed as exploration time for familiar object in retention trial at 0.15 mg/kg, po administered as single dose and measured on day 9 by novel object recognition test (reference value: 8.59 sec); assay type: functional
Rattus norvegicus [34] = assay: Memory enhancement effect in scopolamine-induced Wistar rat model of amnesia assessed as exploration time for object2 in acquisition trial at 0.05 mg/kg, po for 7 days and measured on day 8 by novel object recognition test (reference value: 15.63 sec); assay type: functional
Rattus norvegicus [35] = assay: Memory enhancement effect in time-delay induced Wistar rat model of amnesia assessed as exploration time for familiar object at 3 mg/kg, po administered as single dose after acquisition trial by novel object recognition test (reference value: 10.6 sec); assay type: functional
Rattus norvegicus [36] = assay: Memory enhancement effect in time-delay induced Wistar rat model of amnesia assessed as exploration time for object2 in acquisition trial at 3 mg/kg, po administered as single dose and measured on day 8 by novel object recognition test (reference value: 16.33 sec); assay type: functional
[37] = Ratio of drug level in Swiss mouse brain to plasma at 40 mg/kg, sc after 30 mins by LC-MS analysis; assay type: ADME, organism-based; settings: brain and plasma, read-out: BPR
[38] = Drug concentration in Swiss mouse plasma at 40 mg/kg, sc after 30 mins by LC-MS analysis; assay type: ADME, organism-based
[39] = Drug concentration in Swiss mouse brain at 40 mg/kg, sc after 30 mins by LC-MS analysis; assay type: ADME, organism-based; settings: read-out: Drug uptake

- concentration at 1 h [1]: 43.1 ng/mL
- concentration at 1 h [2]: 50.8 ng/g
- Kp at 1 h [3]: 1.18
Structure (SMILES): COc1cc(OC)c(NC(=O)Nc2cc(C)on2)cc1Cl

- Drug uptake [4]: 12.1 ng/mL
Structure (SMILES): COc1ccc(Cl)cc1C(=O)N[C@@H]1[C@@H](c2ccc(S(N)(=O)=O)cc2)C1(C)C

Structure (SMILES): O=C(Nc1cc(Cl)ccc1O)Nc1cc(C(F)(F)F)ccc1Cl
- concentration at 2 h [5]: 172 ng/mL
- Kp [6]: 0.5

- concentration [7]: 150 to 300 nM
- concentration at 1.5 h [8]: 300 nM
- concentration at 10 min [9]: 1000 nM
Structure (SMILES): Cc1cc(/C(=C/Nc2ccc(Cl)cc2)C(=O)Nc2ccc(Cl)cc2)on1 [AVL-3288]

- concentration at 2 h [20]: 110 to 140 nM
- Kp at 2 h [21]: 0.1 to 0.2
- concentration at 2 h [32]: 700 to 1050 nM
Structure (SMILES): CCC(=O)c1cc(-c2ccc(Cl)cc2)n(-c2ccc(S(N)(=O)=O)cc2)c1C
- Time (Rattus norvegicus [10]): 16.33 s
- Time (Rattus norvegicus [11]): 16.33 s
- Time (Rattus norvegicus [12]): 12.7 s
- Time (Rattus norvegicus [13]): 25.62 s
- Time (Rattus norvegicus [14]): 14.7 s
- Time (Rattus norvegicus [15]): 11.47 s
- Activity (Rattus norvegicus [16]): 65.75%
- Time (Rattus norvegicus [17]): 14.7 s
- Time (Rattus norvegicus [18]): 28.31 s
- Time (Rattus norvegicus [19]): 10.19 s
- Activity (Rattus norvegicus [22]): 35.28%
- Time (Rattus norvegicus [23]): 14.75 s
- Time (Rattus norvegicus [24]): 17.17 s
- Time (Rattus norvegicus [25]): 5.7 s
- Time (Rattus norvegicus [26]): 11.58 s
- Activity (Rattus norvegicus [27]): 31.8%
- Time (Rattus norvegicus [28]): 12.59 s
- Time (Rattus norvegicus [29]): 14.61 s
- Time (Rattus norvegicus [30]): 14.16 s
- Activity (Rattus norvegicus [31]): 50.67%
- Time (Rattus norvegicus [33]): 5.7 s
- Time (Rattus norvegicus [34]): 14.75 s
- Time (Rattus norvegicus [35]): 8.05 s
- Time (Rattus norvegicus [36]): 20.37 s

- Kp at 0.5 h [37]: 0.3
- concentration at 0.5 h [38]: 5920 ng/mL
- concentration at 0.5 h [39]: 1910 ng/g
Structure (SMILES): OCc1sc(Nc2ccc(F)c(C(F)(F)F)c2)nc1-c1ccncc1

Source: ChEMBL document CHEMBL4354827, “Discovery of Novel, Potent, Brain-Permeable, and Orally Efficacious Positive Allosteric Modulator of α7 Nicotinic Acetylcholine Receptor [4-(5-(4-Chlorophenyl)-4-methyl-2-propionylthiophen-3-yl)benzenesulfonamide]: Structure-Activity Relationship and Preclinical Characterization” (J Med Chem, 2020)
